Tested on: GABA-A receptor
Test: 35S-TBPS binding assay on rat cerebral cortex cell membrane
Parameters: species or system Sprague-Dawley rat
Conditions: 2 nM 35S-TBPS, GABA added, read-out: 35S-TBPS bindng test, IC50 on inhibiting the TBPS binding activity
Description: 1.2.1 Extraction of Cerebral Cortex Cell Membrane:
1. The cerebral cortex of male Sprague-Dawley rat was isolated.
2. A pre-chilled 0.32 M sucrose solution (one tablet of protease inhibitor was added per 100 ml) was added to the cerebral cortex (the volume of sucrose solution was 10 times the volume of the cerebral cortex). The mixture was crushed with a 50 ml glass tissue homogenizer in batches and mixed well.
3. The mixture was centrifuged at 1500 g, 4° C. for 10 minutes, and the supernatant was collected.
4. The mixture was centrifuged at 20000 g, 4° C. for 30 minutes, and the supernatant was discarded.
5. The precipitate was resuspended with the pre-chilled phosphate buffer saline (PBS) (one tablet of protease inhibitor was added per 100 ml). An average of 4 ml of PBS was added per rat, and the mixture was mixed well with a glass tissue homogenizer.
6. The mixture was centrifuged at 10000 g, 4° C. for 10 minutes, and the supernatant was discarded.
7. Steps 5 and 6 were repeated three times.
8. Finally, the precipitate was resuspended with 4 volumes of PBS. The resulting solution was dispensed, frozen in liquid nitrogen, and stored at −80° C.
9. The protein concentration was measured by the bicinchoninic acid (BCA) method.
1.2.2 ^35S-TBPS Binding Assay
1. 230 μL of PBS was added to each well of a well plate with 1.1 ml volume.
2. 60 μL of the cerebral cortex cell membrane (5 μg/μL) solution was added to each well, and the mixture was mixed well.
3. The test compound (3 μL per well) was added, and the plate was incubated at 25° C. for 5 minutes. The DMSO concentration was 1%. The initial compound concentration was 1 NM, and a 3-fold dilution in gradient was carried out to obtain a total of 8 gradients and 2 replicates. 1% DMSO was used as a negative control, and 10 μM P026-2 was used as a positive control.
4. GABA was added at a final concentration of […], and incubated at 25° C. for 5 minutes. 1 mM GABA solution was formulated, and 1.5 μL of the solution was added to each well.
5. ^35S-TBPS was added at a final concentration of 2 nM. The concentration of isotope mother solution was 9.7 μM. After dilution with PBS for 100 times, 6 μL of the diluted isotope solution was added to each well.
6. The plate was incubated at 4° C. for 20 hours.
7. The FilterMate GF/C plate was pre-treated with 0.5% PEI, and incubated at 4° C. for 1 hour.
8. The FilterMate GF/C plate was washed with Universal Harvester twice, 50 ml PBS each time.
9. The reaction solution was transferred to the GF/C plate, and each well was washed 4 times with 900 μL PBS.
10. The washed GF/C plate was placed at 55° C. and dried for 10 minutes.
11. 40 μL of scintillation solution was added to each well, and the CPM value was read with TopCount.
1.2.3 Experimental Data Processing Method:
In the experiment, the CPM (counts per minute) value was read with TopCount. According to the readings of the High control (DMSO) and the Low control (10 μM of the positive compound) experimental groups, the % inhibition was calculated based on the following formula: % Inhibition=100×(CPMHigh control−CPMSample)/(CPMHigh control−CPMLow control)
The IC50 of the compound was calculated according to the following 4-parameter nonlinear logic formula: Y=Bottom+(Top−Bottom)/(1+10^((Log IC50−X)*Hill Slope)),
The effect of the compound of the present invention on the TBPS binding activity was determined by the above test, and the measured IC50 values are shown in Table 1.

Row | SMILES | IC50 [nM]
1 | C[C@@]1(O)CC[C@@]2(F)[C@H](CC[C@H]3[C@@H]4CC[C@H](C(=O)Cn5ccc(C#N)n5)[C@@]4(C)CC[C@@H]32)C1 [Example 3, 1-(2-((3R,5R,8S,9S,10R,13S,14S,17S)-10-Fluoro-3-hydroxy-3,13-dimethylhexadecahydro-1H-cyclopenta[a]phenanthren-17-yl)-2-oxoethyl)-1H-pyrazole-3-carbonitrile] | 10.9
2 | C[C@@]1(O)CC[C@@]2(F)[C@H](CC[C@H]3[C@@H]4CC[C@H](C(=O)Cn5nccn5)[C@@]4(C)CC[C@@H]32)C1 [Example 10, 1-((3R,5R,8S,9S,10R,13S,14S,17S)-10-Fluoro-3-hydroxy-3,13-dimethylhexadecahydro-1H-cyclopenta[a]phenanthren-17-yl)-2-(2H-1,2,3-triazol-2-yl)ethan-1-one] | 5.3
3 | Cc1cnn(CC(=O)[C@H]2CC[C@H]3[C@@H]4CC[C@@H]5C[C@](C)(O)CC[C@]5(F)[C@H]4CC[C@]23C)c1 [Example 11, 1-((3R,5R,8S,9S,10R,13S,14S,17S)-10-Fluoro-3-hydroxy-3,13-dimethylhexadecahydro-1H-cyclopenta[a]phenanthren-17-yl)-2-(4-methyl-1H-pyrazol-1-yl)ethan-1-one] | 41.3
4 | C[C@@]1(O)CC[C@@]2(F)[C@H](CC[C@H]3[C@@H]4CC[C@H](C(=O)Cn5nc6ccccc6n5)[C@@]4(C)CC[C@@H]32)C1 [Example 14, 2-(2H-Benzo[d][1,2,3]triazol-2-yl)-1-((3R,5R,8S,9S,10R,13S,14S,17S)-10-fluoro-3-hydroxy-3,13-dimethylhexadecahydro-1H-cyclopenta[a]phenanthren-17-yl)ethan-1-one] | 10.4
5 | C[C@@]1(O)CC[C@@]2(F)[C@H](CC[C@H]3[C@@H]4CC[C@H](C(=O)Cn5nnc6ccccc65)[C@@]4(C)CC[C@@H]32)C1 [Example 15, 2-(1H-Benzo[d][1,2,3]triazol-1-yl)-1-((3R,5R,8S,9S,10R,13S,14S,17S)-10-fluoro-3-hydroxy-3,13-dimethylhexadecahydro-1H-cyclopenta[a]phenanthren-17-yl)ethan-1-one] | 8.7
6 | C[C@@]1(O)CC[C@@]2(F)[C@H](CC[C@H]3[C@@H]4CC[C@H](C(=O)Cn5cc6ccncc6n5)[C@@]4(C)CC[C@@H]32)C1 [Example 16, 1-((3R,5R,8S,9S,10R,13S,14S,17S)-10-Fluoro-3-hydroxy-3,13-dimethylhexadecahydro-1H-cyclopenta[a]phenanthren-17-yl)-2-(2H-pyrazolo[3,4-c]pyridin-2-yl)ethan-1-one] | 40
7 | C[C@@]1(O)CC[C@@]2(F)[C@H](CC[C@H]3[C@@H]4CC[C@H](C(=O)Cn5nnc6ccc(F)cc65)[C@@]4(C)CC[C@@H]32)C1 [Example 19, 2-(6-Fluoro-1H-benzo[d][1,2,3]triazol-1-yl)-1-((3R,5R,8S,9S,10R,13S,14S,17S)-10-fluoro-3-hydroxy-3,13-dimethylhexadecahydro-1H-cyclopenta[a]phenanthren-17-yl)ethan-1-one] | 15.2
8 | C[C@@]1(O)CC[C@@]2(F)[C@H](CC[C@H]3[C@@H]4CC[C@H](C(=O)Cn5cc6c(n5)CCCC6)[C@@]4(C)CC[C@@H]32)C1 [Example 21, 1-((3R,5R,8S,9S,10R,13S,14S,17S)-10-Fluoro-3-hydroxy-3,13-dimethylhexadecahydro-1H-cyclopenta[a]phenanthren-17-yl)-2-(4,5,6,7-tetrahydro-2H-indazol-2-yl)ethan-1-one] | 36.1
9 | C[C@@]1(O)CC[C@@]2(F)[C@H](CC[C@H]3[C@@H]4CC[C@H](C(=O)CNc5ccccc5F)[C@@]4(C)CC[C@@H]32)C1 [Example 24, 1-((3R,5R,8S,9S,10R,13S,14S,17S)-10-Fluoro-3-hydroxy-3,13-dimethylhexadecahydro-1H-cyclopenta[a]phenanthren-17-yl)-2-((2-fluorophenyl)amino)ethan-1-one] | 10.2
10 | C[C@@]1(O)CC[C@@]2(F)[C@H](CC[C@H]3[C@@H]4CC[C@H](C(=O)CNc5cccc(F)c5)[C@@]4(C)CC[C@@H]32)C1 [Example 25, 1-((3R,5R,8S,9S,10R,13S,14S,17S)-10-Fluoro-3-hydroxy-3,13-dimethylhexadecahydro-1H-cyclopenta[a]phenanthren-17-yl)-2-((3-fluorophenyl)amino)ethan-1-one] | 6.7
11 | C[C@@]1(O)CC[C@@]2(F)[C@H](CC[C@H]3[C@@H]4CC[C@H](C(=O)CNc5ccc(F)cc5C#N)[C@@]4(C)CC[C@@H]32)C1 [Example 27, 5-Fluoro-2-((2-((3R,5R,8S,9S,10R,13S,14S,17S)-10-fluoro-3-hydroxy-3,13-dimethylhexadecahydro-1H-cyclopenta[a]phenanthren-17-yl)-2-oxoethyl)amino)benzonitrile] | 7.5
12 | C[C@@]1(O)CC[C@@]2(F)[C@H](CC[C@H]3[C@@H]4CC[C@H](C(=O)COc5ccc(F)cc5C#N)[C@@]4(C)CC[C@@H]32)C1 [Example 30, 5-Fluoro-2-(2-((3R,5R,8S,9S,10R,13S,14S,17S)-10-fluoro-3-hydroxy-3,13-dimethylhexadecahydro-1H-cyclopenta[a]phenanthren-17-yl)-2-oxoethoxy)benzonitrile] | 7.2
13 | C[C@@]1(O)CC[C@@]2(F)[C@H](CC[C@H]3[C@@H]4CC[C@H](C(=O)COc5ccc(C#N)cc5F)[C@@]4(C)CC[C@@H]32)C1 [Example 31, 3-Fluoro-4-(2-((3R,5R,8S,9S,10R,13S,14S,17S)-10-fluoro-3-hydroxy-3,13-dimethylhexadecahydro-1H-cyclopenta[a]phenanthren-17-yl)-2-oxoethoxy)benzonitrile] | 11.1
14 | C[C@@]1(O)CC[C@@]2(F)[C@H](CC[C@H]3[C@@H]4CC[C@H](C(=O)COc5ccc(C#N)cc5)[C@@]4(C)CC[C@@H]32)C1 [Example 33, 4-(2-((3R,5R,8S,9S,10R,13S,14S,17S)-10-Fluoro-3-hydroxy-3,13-dimethylhexadecahydro-1H-cyclopenta[a]phenanthren-17-yl)-2-oxoethoxy)benzonitrile] | 13.8
15 | C[C@@]1(O)CC[C@@]2(F)[C@H](CC[C@H]3[C@@H]4CC[C@H](C(=O)COc5cc(C#N)ccc5F)[C@@]4(C)CC[C@@H]32)C1 [Example 34, 4-Fluoro-3-(2-((3R,5R,8S,9S,10R,13S,14S,17S)-10-fluoro-3-hydroxy-3,13-dimethylhexadecahydro-1H-cyclopenta[a]phenanthren-17-yl)-2-oxoethoxy)benzonitrile] | 9.3
16 | C[C@@]1(O)CC[C@@]2(F)[C@H](CC[C@H]3[C@@H]4CC[C@H](C(=O)COc5ccc(C#N)c(F)c5)[C@@]4(C)CC[C@@H]32)C1 [Example 35, 2-Fluoro-4-(2-((3R,5R,8S,9S,10R,13S,14S,17S)-10-fluoro-3-hydroxy-3,13-dimethylhexadecahydro-1H-cyclopenta[a]phenanthren-17-yl)-2-oxoethoxy)benzonitrile] | 15.1
17 | C[C@@]1(O)CC[C@@]2(F)[C@H](CC[C@H]3[C@@H]4CC[C@H](C(=O)COc5ccc(F)cc5F)[C@@]4(C)CC[C@@H]32)C1 [Example 36, 2-(2,4-Difluorophenoxy)-1-((3R,5R,8S,9S,10R,13S,14S,17S)-10-fluoro-3-hydroxy-3,13-dimethylhexadecahydro-1H-cyclopenta[a]phenanthren-17-yl)ethan-1-one] | 13.7
18 | C[C@@]1(O)CC[C@@]2(F)[C@H](CC[C@H]3[C@@H]4CC[C@H](C(=O)Cn5cc(Cl)cn5)[C@@]4(C)CC[C@@H]32)C1 [Example 37, 2-(4-Chloro-1H-pyrazol-1-yl)-1-((3R,5R,8S,9S,10R,13S,14S,17S)-10-fluoro-3-hydroxy-3,13-dimethylhexadecahydro-1H-cyclopenta[a]phenanthren-17-yl)ethan-1-one] | 17

Reference: patent US11661437B2, “Steroid derivative regulators, method for preparing the same, and uses thereof” (priority 2018, dated 2023)
